Experimental data: US20230158157A1, “POTENT AND SELECTIVE DEGRADERS OF ALK” (DANA-FARBER CANCER INSTITUTE, INC., priority 2020, published 2023)
Read-outs that look alike come from different tables or passages of the source.

What was measured:
Type in all cases: cell-based
EML4-ALK = biological target: T1, EML4-ALK (Homo sapiens, UniProt Q9UM73); test: EML4-ALK HiBit degradation assay in CRISPR-tagged H3122 cells (Nano-Glo HiBit Lytic Detection); conditions: Table 3, H3122 cells, 16 hours; for Dmax: NCI-H3122, read-out: ALK Degradation (H3122 cells) Dmax; for DC50: read-out: ALK Degradation (H3122 cells) DC50
T1 construct: endogenous in cells; host or cells: H3122 (NSCLC), single-cell clone after CRISPR knock-in of HiBit; the other entry of the earlier key: EML4 (Q9HC35, Echinoderm microtubule-associated protein-like 4)
T1 sequence (Q9UM73 with tags, fused parts or gaps): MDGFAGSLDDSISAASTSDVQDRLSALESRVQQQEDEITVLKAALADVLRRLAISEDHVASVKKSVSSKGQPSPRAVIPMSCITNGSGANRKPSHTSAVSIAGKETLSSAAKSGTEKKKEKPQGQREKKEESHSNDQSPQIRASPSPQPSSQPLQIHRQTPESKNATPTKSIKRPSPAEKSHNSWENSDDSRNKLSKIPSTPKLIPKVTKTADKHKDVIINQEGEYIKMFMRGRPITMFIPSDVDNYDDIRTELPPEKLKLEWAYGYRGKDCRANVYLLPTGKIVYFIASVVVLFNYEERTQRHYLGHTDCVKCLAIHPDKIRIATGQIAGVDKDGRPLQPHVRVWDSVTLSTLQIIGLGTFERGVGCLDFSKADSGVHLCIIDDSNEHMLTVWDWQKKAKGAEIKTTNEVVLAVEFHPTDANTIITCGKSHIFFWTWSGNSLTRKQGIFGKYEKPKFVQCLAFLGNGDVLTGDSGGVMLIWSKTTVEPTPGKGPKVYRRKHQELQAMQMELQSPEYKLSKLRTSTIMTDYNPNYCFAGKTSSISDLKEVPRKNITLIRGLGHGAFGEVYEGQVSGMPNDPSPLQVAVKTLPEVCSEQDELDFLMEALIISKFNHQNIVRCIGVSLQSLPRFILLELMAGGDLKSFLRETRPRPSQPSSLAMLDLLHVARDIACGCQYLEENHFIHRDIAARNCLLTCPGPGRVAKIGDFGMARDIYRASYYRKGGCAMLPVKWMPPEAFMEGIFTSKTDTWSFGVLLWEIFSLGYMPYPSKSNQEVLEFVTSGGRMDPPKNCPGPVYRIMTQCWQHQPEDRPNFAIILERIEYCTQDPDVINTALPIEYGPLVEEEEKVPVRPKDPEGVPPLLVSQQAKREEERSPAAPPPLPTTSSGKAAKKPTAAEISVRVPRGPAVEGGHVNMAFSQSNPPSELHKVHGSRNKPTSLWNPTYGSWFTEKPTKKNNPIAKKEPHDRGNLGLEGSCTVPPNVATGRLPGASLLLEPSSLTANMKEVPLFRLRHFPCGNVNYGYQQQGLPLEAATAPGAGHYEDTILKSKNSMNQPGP

H3122 cells = test: CTG; conditions: Table 3, read-out: CTG IC50
FAK = biological target: T2, FAK (Homo sapiens, UniProt Q05397); test: FAK degradation (H3122 cells); conditions: for Dmax: NCI-H3122, Table 3
T2 construct: FAK Degradation; endogenous in cells; host or cells: H3122
T2 sequence (Q05397 whole entry): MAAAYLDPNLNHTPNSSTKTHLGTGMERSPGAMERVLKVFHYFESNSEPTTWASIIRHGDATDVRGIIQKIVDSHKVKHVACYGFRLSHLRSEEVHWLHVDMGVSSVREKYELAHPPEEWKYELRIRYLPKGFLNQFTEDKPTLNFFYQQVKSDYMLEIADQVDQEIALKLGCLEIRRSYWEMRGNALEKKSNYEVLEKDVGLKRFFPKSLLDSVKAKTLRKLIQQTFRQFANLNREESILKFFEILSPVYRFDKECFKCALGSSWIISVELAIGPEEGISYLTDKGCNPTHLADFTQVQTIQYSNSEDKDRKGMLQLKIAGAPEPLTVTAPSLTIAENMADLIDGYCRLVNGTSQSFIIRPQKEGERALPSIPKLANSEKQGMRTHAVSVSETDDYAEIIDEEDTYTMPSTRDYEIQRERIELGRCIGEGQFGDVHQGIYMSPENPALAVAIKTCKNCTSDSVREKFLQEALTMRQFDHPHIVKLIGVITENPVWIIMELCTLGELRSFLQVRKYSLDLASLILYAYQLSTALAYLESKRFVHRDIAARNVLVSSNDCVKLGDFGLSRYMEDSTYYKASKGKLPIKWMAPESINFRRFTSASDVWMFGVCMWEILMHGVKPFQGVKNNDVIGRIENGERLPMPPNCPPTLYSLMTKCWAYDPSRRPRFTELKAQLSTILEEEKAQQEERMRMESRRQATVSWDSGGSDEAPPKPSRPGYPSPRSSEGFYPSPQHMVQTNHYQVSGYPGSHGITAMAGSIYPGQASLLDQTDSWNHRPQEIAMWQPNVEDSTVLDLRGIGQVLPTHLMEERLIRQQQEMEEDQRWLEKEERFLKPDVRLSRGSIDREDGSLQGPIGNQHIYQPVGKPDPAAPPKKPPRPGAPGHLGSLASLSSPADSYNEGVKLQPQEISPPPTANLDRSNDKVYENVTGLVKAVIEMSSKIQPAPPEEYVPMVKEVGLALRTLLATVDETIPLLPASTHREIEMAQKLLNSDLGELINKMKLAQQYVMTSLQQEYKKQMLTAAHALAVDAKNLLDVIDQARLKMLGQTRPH

WT EML4-ALK V3 = biological target: T3, WT EML4-ALK V3 (Homo sapiens, UniProt Q9UM73); test: Western blot of pALK Tyr1507, ALK and tubulin in WT EML4-ALK V3 Ba/F3 cells
T3 construct: expressed in transfected cells; host or cells: Ba/F3; the other entry of the earlier key: EML4 (Q9HC35, Echinoderm microtubule-associated protein-like 4)
T3 sequence (Q9UM73 1058-1620 limits assumed): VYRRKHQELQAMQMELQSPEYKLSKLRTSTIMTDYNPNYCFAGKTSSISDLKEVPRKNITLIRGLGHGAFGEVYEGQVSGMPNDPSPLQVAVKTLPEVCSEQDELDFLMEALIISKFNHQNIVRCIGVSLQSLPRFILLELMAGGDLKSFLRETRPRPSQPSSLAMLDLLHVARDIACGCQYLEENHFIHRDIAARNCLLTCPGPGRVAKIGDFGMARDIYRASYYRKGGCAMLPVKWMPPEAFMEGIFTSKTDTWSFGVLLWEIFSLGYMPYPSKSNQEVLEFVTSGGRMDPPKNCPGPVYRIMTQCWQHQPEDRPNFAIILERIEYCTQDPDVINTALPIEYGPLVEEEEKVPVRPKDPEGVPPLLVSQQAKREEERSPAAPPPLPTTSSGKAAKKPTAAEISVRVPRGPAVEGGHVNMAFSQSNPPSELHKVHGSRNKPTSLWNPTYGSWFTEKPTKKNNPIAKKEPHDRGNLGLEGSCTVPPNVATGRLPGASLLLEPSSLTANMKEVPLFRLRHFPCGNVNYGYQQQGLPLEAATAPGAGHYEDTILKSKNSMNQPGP
Method: (§1) Cells treated with DMSO, compound 96, negative control of 96 or Loratinib at indicated concentrations (nM).
(§2) The cells were collected and washed with PBS buffer. Cell lysates were prepared by using NP40 lysis buffer (Invitrogen™) supplemented with complete protease inhibitor cocktail (Roche), PhosSTOP™ phosphatase inhibitor cocktail (Roche) and PMSF (1 mM). The lysates were cleared by centrifugation and resolved using Bolt™ 4-12% Bis-Tris plus gels and Western blotted to detect proteins of interest. Antibodies to phospho-ALK^Tyr1507 and tubulin (#14678S and #3873, Cell Signaling Technologies®) were used according to the manufacturers' instructions. For Western Blot visualization, Odyssey® Clx (Li-cor) was utilized.

G1202R EML4-ALK V3 = biological target: T4, G1202R EML4-ALK V3 (Homo sapiens, UniProt Q9UM73, G1202R); test: Western blot of pALK Tyr1507, ALK and tubulin in G1202R EML4-ALK V3 Ba/F3 cells
T4 construct: expressed in transfected cells; host or cells: Ba/F3; the other entry of the earlier key: EML4 (Q9HC35, Echinoderm microtubule-associated protein-like 4)
T4 sequence (Q9UM73 1058-1620 G1202R limits assumed): as the sequence (Q9UM73 1058-1620 limits assumed) above, with G145R counted along it
Method: as §1, §2

[1] = compared to Alectinib and Lorlatinib

SMILES | Dmax (EML4-ALK) [%] | DC50 (EML4-ALK) [nM] | IC50 (H3122 cells; Homo sapiens, NCI-H3122) [nM] | Dmax (FAK) [%] | DC50 (FAK; Table 3) [nM] | also measured
COc1cc(C2CCN(CCCCCC#Cc3cccc4c3C(=O)N(C3CCC(=O)NC3=O)C4=O)CC2)c(C)cc1Nc1ncc(Cl)c(Nc2ccccc2S(=O)(=O)C(C)C)n1 (stereo not drawn) [compound 93, 4-(7-(4-(4-((5-chloro-4-((2-(isopropylsulfonyl)phenyl)amino)pyrimidin-2-yl)amino)-5-methoxy-2-methylphenyl)piperidin-1-yl)hept-1-yn-1-yl)-2-(2,6-dioxopiperidin-3-yl)isoindoline-1,3-dione] | 82 | 49 | 202 | 89 | 24 | –
COc1cc(C2CCN(CCCCCC#Cc3cccc4c3CN(C3CCC(=O)NC3=O)C4=O)CC2)c(C)cc1Nc1ncc(Cl)c(Nc2ccccc2S(=O)(=O)C(C)C)n1 (stereo not drawn) [compound 94, 3-(4-(7-(4-(4-((5-chloro-4-((2-(isopropylsulfonyl)phenyl)amino)pyrimidin-2-yl)amino)-5-methoxy-2-methylphenyl)piperidin-1-yl)hept-1-yn-1-yl)-1-oxoisoindolin-2-yl)piperidine-2,6-dione] | – | – | – | 86 | – | –
COc1cc(CCNCCCCCC#Cc2ccc3c(c2)CN(C2CCC(=O)NC2=O)C3=O)c(C)cc1Nc1ncc(Cl)c(Nc2ccccc2S(=O)(=O)C(C)C)n1 (stereo not drawn) [compound 92] | – | – | 50 | 93 | 4 | –
COc1cc(C2CCN(CC#Cc3ccc4c(c3)CN(C3CCC(=O)NC3=O)C4=O)CC2)c(C)cc1Nc1ncc(Cl)c(Nc2ccccc2S(=O)(=O)C(C)C)n1 (stereo not drawn) [compound 97, 3-(5-(3-(4-(4-((5-chloro-4-((2-(isopropylsulfonyl)phenyl)amino)pyrimidin-2-yl)amino)-5-methoxy-2-methylphenyl)piperidin-1-yl)prop-1-yn-1-yl)-1-oxoisoindolin-2-yl)piperidine-2,6-dione] | – | – | – | 80 | 8 | –
COc1cc(N2CCC(NC(=O)CCCCCCCCCC(=O)N[C@H](C(=O)N3C[C@H](O)C[C@H]3C(=O)NCc3ccc(-c4scnc4C)cc3)C(C)(C)C)CC2)ccc1Nc1ncc(Cl)c(Nc2ccccc2P(C)(C)=O)n1 [SIAIS117] | – | 9 | – | – | 10 | ALK Degradation (H3122 cells) Dmax (EML4-ALK): 43%; IC50 (H3122 cells): 42 nM; FAK Degradation (H3122 cells) Dmax (FAK; Table 3): 70%
COc1cc(CCNCCCCCC#Cc2cccc3c2CN(C2CCC(=O)NC2=O)C3=O)c(C)cc1Nc1ncc(Cl)c(Nc2ccccc2S(=O)(=O)C(C)C)n1 (stereo not drawn) [compound 91, 3-(4-(7-((4-((5-chloro-4-((2-(isopropylsulfonyl)phenyl)amino)pyrimidin-2-yl)amino)-5-methoxy-2-methylphenethyl)amino)hept-1-yn-1-yl)-1-oxoisoindolin-2-yl)piperidine-2,6-dione] | – | – | 50 | 85 | 4 | –
COc1cc(C2CCN(CCCCC#Cc3cccc4c3CN(C3CCC(=O)NC3=O)C4=O)CC2)c(C)cc1Nc1ncc(Cl)c(Nc2ccccc2S(=O)(=O)C(C)C)n1 (stereo not drawn) [compound 95, 3-(4-(6-(4-(4-((5-chloro-4-((2-(isopropylsulfonyl)phenyl)amino)pyrimidin-2-yl)amino)-5-methoxy-2-methylphenyl)piperidin-1-yl)hex-1-yn-1-yl)-1-oxoisoindolin-2-yl)piperidine-2,6-dione] | 73 | 1 | 4 | 89 | 1 | –
COc1cc(C2CCN(CCCC#Cc3cccc4c3CN(C3CCC(=O)NC3=O)C4=O)CC2)c(C)cc1Nc1ncc(Cl)c(Nc2ccccc2S(=O)(=O)C(C)C)n1 (stereo not drawn) [compound 96, 3-(4-(5-(4-(4-((5-chloro-4-((2-(isopropylsulfonyl)phenyl)amino)pyrimidin-2-yl)amino)-5-methoxy-2-methylphenyl)piperidin-1-yl)pent-1-yn-1-yl)-1-oxoisoindolin-2-yl)piperidine-2,6-dione] | 79 | 3 | 12 | 92 | 2 | ALK degradation by Western blot (WT EML4-ALK V3; FIG. 1A, 1C): potent degrader; pALK inhibition by Western blot (WT EML4-ALK V3; [1]): significantly improved pALK inhibition compared to Alectinib and Lorlatinib; ALK degradation by Western blot (G1202R EML4-ALK V3; FIG. 1B, 1D): potent degrader; pALK inhibition by Western blot (G1202R EML4-ALK V3; [1]): significantly improved pALK inhibition compared to Alectinib and Lorlatinib
